Data taken from US20250280827A1, “An antifungal composition comprising natamycin and at least one insecticide” (priority 2021, published 2025).
Read-outs that look alike come from different tables or passages of the source.

How the values were obtained:
Botrytis cinerea = experiment: Antifungal effect against Botrytis cinerea infection on wounded peel of banana fruits (Colby synergy); assay type: in vivo; settings: 5 days after inoculation
Excerpt: (§1) wherein X and Y are the observed antifungal activities (in %) of the individual active ingredients x and y, respectively. If the observed antifungal activity (O in %) of the combination exceeds the expected antifungal activity (E in %) of the combination and the synergy factor O/E is thus >1.0, the combined application of the active ingredients leads to a synergistic antifungal effect.
(§2) Application: The broad bean pods were washed under tap water, and were subsequently surface sterilized by placing them in a 0.1% sodium hypochlorite solution for 5 minutes. The pods were then rinsed with tap water and dried. Transparent plastic containers were prepared by placing a piece of absorbing paper in the container and adding 25 ml of water, one container per treatment was used. The pods were cut in two, and two halve pods were incubated per box. The skin of broad bean pods was damaged with a needle, ø 2 mm and to a depth of about 3 mm into the fruit, with—depending on the size of the pod—2 to 4 wounds per half pod. In total, 6 wounds were incubated per treatment, of which 1 was used as a control. A volume of 20 microliter of a natamycin/insecticide composition, as presented herein above, was applied by pipette to each wound. The treatments were then left to air-dry. Once dried, a mycelium plug of Sclerotinia sclerotiorum was placed upside down on each wound, so that the mycelium was in direct contact with the wound. Per treatment 5 wounds were inoculated with the fungus, while the 6th and last wound was used as negative non-inoculated control. After inoculation, the containers were directly closed with a transparent plastic lid.
The infection area was measured 5 days after inoculation.
A few changes were made for the banana experiments: 5 wounds per banana were made, on each wound 40 microliter of treatments was pipetted. The treatments were then left to air-dry. Once dried, 2 microliter of a freshly prepared inoculum was pipetted on four of the wounds. The inoculum consists of […] potato dextrose broth (PDB) medium containing Botrytis cinerea spores at a concentration of 10^6 spores per ml. The fifth wound was used as negative non-inoculated control. Experiment was performed in 4-fold.
Assessment of the infection area was performed 3 days after inoculation. Experiment was performed in 4-fold.
Imidacloprid was formulated as described in Table 2. Assessment of the efficacy was 5 days after inoculation. Experiment was performed in 4-fold.

Fusarium graminerum = assay type: cell-based; settings: 6 days after inoculation
Excerpt: (§3) The Colby equation (Colby, 1967. Weeds 15:20-22) calculates the expected antifungal activity (E in %) of a combination comprising more than one active ingredients:
as §1
(§4) Agar medium was prepared by mixing in a 100 ml Duran bottle 3.9 g of potato dextrose agar (PDA) from Carl-Roth (Carl-Roth GmbH+Co. KG, Karlsruhe, Germany) with 100 ml deionized water and autoclaving the Duran bottle at 120° C. for 15 minutes. After autoclaving, the solution was cooled by putting it in a 48° C. oven for about two hours. Afterward the semi-liquid PDA solution was carefully mixed with natamycin and/or insecticide dosages as specified in Table 5 showing the interaction results on petri dishes. The medium in the Duran bottle was divided over 5 petri dishes (90×15 mm), 20 ml per petri dish by using 25 ml serological pipets (ROTILABO®; Carl-Roth). Each natamycin and/or insecticide treatment was performed in fivefold.
(§5) Fungal spore suspensions were prepared by drenching a fully grown petri dish with sterile water. The fungus was scraped off and filtered through a Miracloth (pore size: 22-25 μm) (Merck KGaA, Darmstadt, Germany; catalogue number: 475855). The number of spores were counted with a hemocytometer and fungal suspension was adjusted to 10^6 spores per ml. Afterward, 5 μl of prepared spore suspension was pipetted on the center of the agar plate. The plates were incubated at 25° C. Measurement of the fungal growth was done using callipers at different time points. Assessment of the infection area was 6 days after inoculation.
(§6) The insecticide levels and the period after which the assessments were made are presented as specified for the different insecticides are presented in Table 5 below. Synergistic calculation was done using the Colby equation. Experiment was performed in 5-fold.
The experiments were performed as described in Example 3. The product KARATE ZEON® of company Syngenta containing the active ingredient lambda-cyhalothrin belonging to IRAC Group 3 was tested. Assessment of the infection area was 6 days after inoculation. Experiment was performed in 5-fold.

Fusarium culmorum = experiment: Antifungal effect against Fusarium culmorum on PDA petri dishes (fungal growth area, Colby synergy); assay type: cell-based
Excerpt: as §3, §1, §4, §5, §6
The experiments were performed as described in Example 3. Assessment of the infection area was 6 days after inoculation. Experiment was performed in 5-fold.
The experiments were performed as described in Example 3. The product KARATE ZEON® of company Syngenta containing the active ingredient lambda-cyhalothrin belonging to IRAC Group 3 was tested. Assessment of the infection area was 3 days after inoculation. Experiment was performed in 5-fold.

Sclerotinia sclerotiorum = experiment: Antifungal effect against Sclerotinia sclerotiorum infection on wounded skin of broad bean pods (rot area, Colby synergy); assay type: in vivo
Excerpt: as §3, §1
• 1) Control (without natamycin and lambda-cyhalothrin) • 2) Natamycin at a level of 15 ppm • 3) Lambda-cyhalothrin (in the product KARATE ZEON® of Syngenta) at a levels of 0.15 ppm, 0.6 ppm, 3 ppm and 15 ppm • 4) Natamycin at a level of 15 ppm combined with lambda-cyhalothrin at levels of 0.15 ppm, 0.6 ppm, 3 ppm or 15 ppm.
Used pathogen: Sclerotinia sclerotiorum.
as §2
All pods were kept at room temperature (20° C.). Wounds of the pods were checked after 30 h of incubation.
Replicates: All treatments for the broad bean pod experiment were performed on two individual pod halves resulting in 5 wounds per treatment, while a sixth wound served as control.
The experiments were performed as described in Example 1.
The experiments were performed as described in Example 1. Assessment of the infection area was 23 h after inoculation. Experiment was performed in 5-fold.
The experiments were performed as described in Example 1. Thiamethoxam belongs to IRAC Group 4. Assessment of the infection area was 31 hours after inoculation. Experiment was performed in 5-fold.
The experiments were performed as described in Example 1. The product SPECTRE® of company (Adama) containing the active ingredient chlorfenapyr belonging to IRAC Group 13 was tested. Assessment of the infection area was 23 hours after inoculation. Experiment was performed in 5-fold.

[1] = natamycin-insecticide 0:0.004 ppm, Table 12B
[2] = natamycin-insecticide 0:0.01 ppm, Table 12A
[3] = natamycin-insecticide 0:0.04 ppm, Table 12A
[4] = natamycin-insecticide 0:1 ppm, Table 12A
[5] = natamycin-insecticide 0-0.1 ppm, Table 10
[6] = natamycin-insecticide 0-0.2 ppm, Table 10
[7] = natamycin-insecticide 0-0.5 ppm, Table 10
[8] = natamycin-insecticide 0-1 ppm, Table 10
[9] = natamycin-insecticide 0-0.05 ppm, 3 days after inoculation, Table 11
[10] = natamycin-insecticide 0-0.1 ppm, 3 days after inoculation, Table 11
[11] = natamycin-insecticide 0-0.2 ppm, 3 days after inoculation, Table 11
[12] = natamycin-insecticide 0-0.5 ppm, 3 days after inoculation, Table 11
[13] = natamycin-insecticide 0-0.15 ppm, 30 h after inoculation, Table 3
[14] = natamycin-insecticide 0-0.6 ppm, 30 h after inoculation, Table 3
[15] = natamycin-insecticide 0-3 ppm, 30 h after inoculation, Table 3
[16] = natamycin-insecticide 0-15 ppm, 30 h after inoculation, Table 3
[17] = natamycin-insecticide 0-0.05 ppm, Table 5
[18] = natamycin-insecticide 0-0.1 ppm, Table 5
[19] = natamycin-insecticide 0-0.2 ppm, Table 5
[20] = natamycin-insecticide 0-0.5 ppm, Table 5
[21] = natamycin-insecticide 0-0.05 ppm, 6 days after inoculation, Table 6
[22] = natamycin-insecticide 0-0.1 ppm, 6 days after inoculation, Table 6
[23] = natamycin-insecticide 0-0.2 ppm, 6 days after inoculation, Table 6
[24] = natamycin-insecticide 0-0.5 ppm, 6 days after inoculation, Table 6
[25] = natamycin-insecticide 0-0.15 ppm, 23 h after inoculation, Table 4
[26] = natamycin-insecticide 0-0.6 ppm, 23 h after inoculation, Table 4
[27] = natamycin-insecticide 0-3 ppm, 23 h after inoculation, Table 4
[28] = natamycin-insecticide 0-15 ppm, 23 h after inoculation, Table 4

## CC1(C)[C@H](/C=C(\Cl)C(F)(F)F)[C@@H]1C(=O)O[C@@H](C#N)c1cccc(Oc2ccccc2)c1 [lambda-cyhalothrin, [(R)-cyano-(3-phenoxyphenyl)methyl] (1S,3S)-3-[(Z)-2-chloro-3,3,3-trifluoroprop-1-enyl]-2,2-dimethylcyclopropane-1-carboxylate]
Botrytis cinerea; [1]
  Avg infected area: 82.4 mm2
  Observed antifungal activity: 16.6%
Botrytis cinerea; [2]
  Avg infected area: 38.9 mm2
  Observed antifungal activity: 39.0%
Botrytis cinerea; [3]
  Avg infected area: 55.1 mm2
  Observed antifungal activity: 13.7%
Botrytis cinerea; [4]
  Avg infected area: 41.8 mm2
  Observed antifungal activity: 34.6%
Fusarium graminerum; [5]
  Avg infected area: 4846.2 mm2
  Observed antifungal activity: −34.1%
Fusarium graminerum; [6]
  Avg infected area: 5071.1 mm2
  Observed antifungal activity: −40.3%
Fusarium graminerum; [7]
  Avg infected area: 4842.3 mm2
  Observed antifungal activity: −34%
Fusarium graminerum; [8]
  Avg infected area: 4714.2 mm2
  Observed antifungal activity: −30.4%
Fusarium culmorum; [9]
  Avg infected area: 384.0 mm2
  Observed antifungal activity: −5.9%
Fusarium culmorum; [10]
  Avg infected area: 383.9 mm2
  Observed antifungal activity: −5.8%
Fusarium culmorum; [11]
  Avg infected area: 370.9 mm2
  Observed antifungal activity: −2.2%
Fusarium culmorum; [12]
  Avg infected area: 381.7 mm2
  Observed antifungal activity: −5.2%
Sclerotinia sclerotiorum; [13]
  Avg infected area: 314.73 mm^2
  Observed antifungal activity: −0.1%
Sclerotinia sclerotiorum; [14]
  Avg infected area: 325.88 mm^2
  Observed antifungal activity: −3.7%
Sclerotinia sclerotiorum; [15]
  Avg infected area: 350.24 mm^2
  Observed antifungal activity: −11.4%
Sclerotinia sclerotiorum; [16]
  Avg infected area: 322.41 mm^2
  Observed antifungal activity: −2.5%

## CCOC(=O)/C=C(C)/C=C/CC(C)CCCC(C)C (centres unmarked) [hydroprene]
Fusarium graminerum; [17]
  Avg infected area: 1124 mm2
  Observed antifungal activity: 1.0%
Fusarium graminerum; [18]
  Avg infected area: 1142.1 mm2
  Observed antifungal activity: −0.6%
Fusarium graminerum; [19]
  Avg infected area: 970.5 mm2
  Observed antifungal activity: 14.5%
Fusarium graminerum; [20]
  Avg infected area: 1055.1 mm2
  Observed antifungal activity: 7.1%
Fusarium culmorum; [21]
  Avg infected area: 934.7 mm2
  Observed antifungal activity: 6.4%
Fusarium culmorum; [22]
  Avg infected area: 1010.5 mm2
  Observed antifungal activity: −1.2%
Fusarium culmorum; [23]
  Avg infected area: 1014.3 mm2
  Observed antifungal activity: −1.6%
Fusarium culmorum; [24]
  Avg infected area: 1060.2 mm2
  Observed antifungal activity: −6.2%
Sclerotinia sclerotiorum; [25]
  Avg infected area: 99.3 mm2
  Observed antifungal activity: 36.6%
Sclerotinia sclerotiorum; [26]
  Avg infected area: 103.1 mm2
  Observed antifungal activity: 34.2%
Sclerotinia sclerotiorum; [27]
  Avg infected area: 74.5 mm2
  Observed antifungal activity: 52.5%
Sclerotinia sclerotiorum; [28]
  Avg infected area: 89 mm2
  Observed antifungal activity: 43.2%
